Measured values as given in ChEMBL document CHEMBL3870338, “Microwave assisted synthesis of novel tetrazole/sulfonamide derivatives based on octahydroacridine, xanthene and chromene skeletons as inhibitors of the carbonic anhydrases isoforms I, II, IV and VII” (Bioorg Med Chem Lett, 2017).

Tests used:
Carbonic anhydrase 2 = Carbonic anhydrase 2 (Homo sapiens, UniProt P00918); assay: Inhibition of human recombinant carbonic anhydrase 2 expressed in Escherichia coli assessed as reduction in CO2 hydration preincubated for 15 mins prior to testing measured for 10 to 100 secs by stopped-flow assay
Carbonic anhydrase 1 = Carbonic anhydrase 1 (Homo sapiens, UniProt P00915); assay: Inhibition of human recombinant carbonic anhydrase 1 expressed in Escherichia coli assessed as reduction in CO2 hydration preincubated for 15 mins prior to testing measured for 10 to 100 secs by stopped-flow assay
Sequence of Carbonic anhydrase 1 (P00915 whole entry): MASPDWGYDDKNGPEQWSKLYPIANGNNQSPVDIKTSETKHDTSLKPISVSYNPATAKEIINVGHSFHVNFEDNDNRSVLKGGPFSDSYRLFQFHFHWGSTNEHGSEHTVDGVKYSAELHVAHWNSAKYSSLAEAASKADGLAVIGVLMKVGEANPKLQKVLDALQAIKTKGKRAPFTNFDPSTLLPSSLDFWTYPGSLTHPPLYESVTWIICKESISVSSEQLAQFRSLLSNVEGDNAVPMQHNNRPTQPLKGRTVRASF

Carbonic anhydrase 4 = Carbonic anhydrase 4 (Homo sapiens, UniProt P22748); assay: Inhibition of human recombinant carbonic anhydrase 4 expressed in Escherichia coli assessed as reduction in CO2 hydration preincubated for 15 mins prior to testing measured for 10 to 100 secs by stopped-flow assay
Sequence of Carbonic anhydrase 4 (P22748 whole entry): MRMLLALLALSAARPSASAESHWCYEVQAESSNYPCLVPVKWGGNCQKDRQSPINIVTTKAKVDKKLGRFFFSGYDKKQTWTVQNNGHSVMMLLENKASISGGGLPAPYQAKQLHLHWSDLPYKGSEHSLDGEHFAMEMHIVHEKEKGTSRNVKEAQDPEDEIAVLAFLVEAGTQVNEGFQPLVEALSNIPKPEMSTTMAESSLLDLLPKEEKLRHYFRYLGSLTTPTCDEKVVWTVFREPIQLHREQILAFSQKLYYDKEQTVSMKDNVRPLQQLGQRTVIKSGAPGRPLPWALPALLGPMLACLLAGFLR

Carbonic anhydrase 7 = Carbonic anhydrase 7 (Homo sapiens, UniProt P43166); assay: Inhibition of human recombinant carbonic anhydrase 7 expressed in Escherichia coli assessed as reduction in CO2 hydration preincubated for 15 mins prior to testing measured for 10 to 100 secs by stopped-flow assay
Sequence of Carbonic anhydrase 7 (P43166 whole entry): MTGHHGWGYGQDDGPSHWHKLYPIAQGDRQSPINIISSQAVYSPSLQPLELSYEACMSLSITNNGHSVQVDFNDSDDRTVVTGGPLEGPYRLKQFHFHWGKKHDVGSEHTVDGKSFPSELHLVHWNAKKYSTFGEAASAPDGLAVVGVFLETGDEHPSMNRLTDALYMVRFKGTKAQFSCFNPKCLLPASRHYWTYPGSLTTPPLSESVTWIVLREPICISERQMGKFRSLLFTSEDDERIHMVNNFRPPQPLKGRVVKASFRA

Compound	Ki (Carbonic anhydrase 2)	Ki (Carbonic anhydrase 1)	Ki (Carbonic anhydrase 4)	Ki (Carbonic anhydrase 7)
CC1(C)CC(=O)C2=C(C1)OC(N)=C(C#N)C2c1cccc(-c2nnn[nH]2)c1 (stereo not given)	> 10 µM	> 10 µM	> 10 µM	> 10 µM
O=C1CCCC2=C1C(c1ccc(-c3nnn[nH]3)cc1)C1=C(CCCC1=O)O2	> 10 µM	> 10 µM	> 10 µM	> 10 µM
N#CC1=C(N)OC2=C(C(=O)CCC2)C1c1cccc(-c2nnn[nH]2)c1 (stereo not given)	> 10 µM	> 10 µM	> 10 µM	> 10 µM
CC1(C)CC(=O)C2=C(C1)OC1=C(C(=O)CC(C)(C)C1)C2c1ccc(-c2nnn[nH]2)cc1	> 10 µM	> 10 µM	> 10 µM	> 10 µM

Results, then the compound that gave them:

Ki (Carbonic anhydrase 2)	Ki (Carbonic anhydrase 1)	Ki (Carbonic anhydrase 4)	Ki (Carbonic anhydrase 7)	Compound
> 10 µM	> 10 µM	> 10 µM	> 10 µM	O=Cc1ccc(-c2nnn[nH]2)cc1
> 10 µM	> 10 µM	> 10 µM	> 10 µM	CC1(C)CC(=O)C2=C(C1)OC(N)=C(C#N)C2c1ccc(-c2nnn[nH]2)cc1 (stereo not given)
> 10 µM	> 10 µM	> 10 µM	> 10 µM	CC1(C)CC(=O)C2=C(C1)OC1=C(C(=O)CC(C)(C)C1)C2c1cccc(-c2nnn[nH]2)c1
> 10 µM	> 10 µM	> 10 µM	> 10 µM	N#CC1=C(N)OC2=C(C(=O)CCC2)C1c1ccc(-c2nnn[nH]2)cc1 (stereo not given)
> 10 µM	> 10 µM	> 10 µM	> 10 µM	O=Cc1cccc(-c2nnn[nH]2)c1
> 10 µM	> 10 µM	> 10 µM	> 10 µM	O=C1CCCC2=C1C(c1cccc(-c3nnn[nH]3)c1)C1=C(CCCC1=O)O2
